{"source": "paper PMC3085948", "about": "(Journal of medicinal chemistry, 2011)", "key": {"[1]": {"tested_on": "common P450 metabolism enzymes", "conditions": "background statement; cited from earlier work"}, "[2]": {"conditions": "in vivo; cited from earlier work"}, "[3]": {"tested_on": "human ether-a-go-go related gene (hERG)", "conditions": "background statement; cited from earlier work"}, "[4]": {"tested_on": "cannabinoid (CB1 or CB2) or vanilloid receptors", "conditions": "background statement; cited from earlier work"}, "[5]": {"assay": "Rat or human liver microsome stability", "conditions": "rat, human, microsomes"}, "human FAAH": {"tested_on": "human FAAH", "assay": "FAAH inhibition, human FAAH from transfected COS-7 cells", "assay_type": "biochemical", "conditions": "active (S)-enantiomers; hFAAH vs rFAAH"}, "FAAH knockout mice": {"tested_on": "FAAH knockout mice", "conditions": "cited from earlier work"}, "rat FAAH": {"biological_target": "T1, rat FAAH (Rattus norvegicus, UniProt P97612)", "T1 sequence (P97612 30-579 limits assumed)": "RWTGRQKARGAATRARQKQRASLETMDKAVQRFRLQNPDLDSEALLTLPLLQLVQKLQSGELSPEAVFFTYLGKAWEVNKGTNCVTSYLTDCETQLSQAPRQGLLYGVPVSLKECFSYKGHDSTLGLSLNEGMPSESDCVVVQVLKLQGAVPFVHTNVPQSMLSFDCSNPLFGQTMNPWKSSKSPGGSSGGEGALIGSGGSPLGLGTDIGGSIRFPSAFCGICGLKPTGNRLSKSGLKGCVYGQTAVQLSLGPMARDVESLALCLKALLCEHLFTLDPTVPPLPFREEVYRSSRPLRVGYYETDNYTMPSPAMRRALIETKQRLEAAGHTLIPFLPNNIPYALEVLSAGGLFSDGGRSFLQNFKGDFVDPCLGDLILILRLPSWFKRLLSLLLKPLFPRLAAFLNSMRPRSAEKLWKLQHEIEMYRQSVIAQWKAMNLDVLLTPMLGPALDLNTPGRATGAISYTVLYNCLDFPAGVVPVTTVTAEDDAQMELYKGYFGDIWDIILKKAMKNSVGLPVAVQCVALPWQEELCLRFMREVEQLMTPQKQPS", "assay_type": "biochemical"}, "[6]": {"assay_type": "in vivo", "conditions": "50 mg/kg oral, data not shown"}, "[7]": {"tested_on": "endogenous lipid amide levels (anandamide, PEA, OEA, 2-AG, arachidonic acid)", "conditions": "for effect on endogenous levels of 2-AG / effect on endogenous levels of arachidonic acid / effect on endogenous levels of key lipid amides (anandamide, PEA) / site of effect on lipid levels (brain vs liver): 30 mg/kg i.p., single mouse; for brain lipid amide levels, oral versus intraperitoneal dosing: p.o. 50 mg/kg vs i.p. 30 mg/kg, 3 mice per group"}, "[8]": {"tested_on": "chronic constriction injury (CCI) neuropathic pain", "assay": "CCI acetone-induced cold allodynia", "assay_type": "in vivo, mice", "conditions": "50 mg/kg p.o."}, "[9]": {"tested_on": "chronic constriction injury (CCI) neuropathic pain", "assay": "CCI mechanical allodynia", "assay_type": "in vivo, mice", "conditions": "50 mg/kg p.o."}, "acute thermal pain": {"tested_on": "acute thermal pain", "assay_type": "in vivo, mice", "conditions": "i.v. administration"}}}
{"smiles": "O=C(CCCCCCc1ccccc1)c1ncc(-c2ccccn2)o1", "note": "[Compound 2]", "values": [{"measurement": "inhibition of common P450 metabolism enzymes", "setting": "[1]", "result": "does not significantly inhibit"}, {"measurement": "time to establish ketone/alcohol steady state equilibrium", "setting": "[2]", "result": "≤ 15", "unit": "min"}, {"measurement": "inhibition of hERG", "setting": "[3]", "result": "does not significantly inhibit"}, {"measurement": "binding to cannabinoid (CB1 or CB2) or vanilloid receptors", "setting": "[4]", "result": "does not bind"}, {"measurement": "half-life", "setting": "[5]", "result": "2 to 4", "unit": "min"}, {"measurement": "activity against human versus rat FAAH", "setting": "human FAAH", "result": "no significant distinction"}, {"measurement": "antinociception in FAAH knockout mice", "setting": "FAAH knockout mice", "result": "does not produce antinociception"}]}
{"smiles": "O=C(c1ncc(-c2ccccn2)o1)C1CCc2cc(Oc3ccccc3)ccc2C1", "note": "(stereo not shown) [Compound 12, (6-Phenoxy-1,2,3,4-tetrahydronaphthalen-2-yl)(5-(pyridin-2-yl)oxazol-2-yl)methanone]", "values": [{"measurement": "mode of inhibition (Lineweaver–Burk analysis)", "setting": "rat FAAH", "result": "reversible, competitive inhibitors"}, {"measurement": "activity against human versus rat FAAH", "setting": "human FAAH", "result": "no significant distinction"}, {"measurement": "cannabimimetic side effects", "setting": "[6]", "result": "did not produce catalepsy, hypothermia, or hypomotility"}, {"measurement": "effect on endogenous levels of 2-AG", "setting": "[7]; 1 h", "result": "without impacting"}, {"measurement": "effect on endogenous levels of arachidonic acid", "setting": "[7]; 1 h", "result": "minimal impact"}, {"measurement": "effect on endogenous levels of key lipid amides (anandamide, PEA)", "setting": "[7]; 1 h", "result": "increased"}, {"measurement": "site of effect on lipid levels (brain vs liver)", "setting": "[7]; 1 h", "result": "observed both in the brain (CNS) and liver (peripheral)"}, {"measurement": "time of peak brain anandamide levels", "setting": "[7]; 50 mg/kg p.o.", "result": "1.5 to 3", "unit": "h"}, {"measurement": "duration of elevation of brain N-acylethanolamines", "setting": "[7]; 50 mg/kg p.o., time course up to 9 h", "result": "≥ 9", "unit": "h"}, {"measurement": "brain lipid amide levels, oral versus intraperitoneal dosing", "setting": "[7]", "result": "matched and even improved on the results observed with i.p. administration"}, {"measurement": "increase in brain levels of PEA and OEA", "setting": "[7]; p.o. 10, 25 and 50 mg/kg, 1 h", "result": "5.5–7.8 fold"}, {"measurement": "increase in brain anandamide levels", "setting": "[7]; p.o. 25–50 mg/kg, 1 h", "result": "12–13 fold"}, {"measurement": "cold allodynia, control paws", "setting": "[8]", "result": "no effect"}, {"measurement": "cold allodynia, paws ipsilateral to CCI surgery", "setting": "[8]", "result": "significantly attenuated"}, {"measurement": "duration of effect on cold allodynia", "setting": "[8]", "result": "> 9", "unit": "h"}, {"measurement": "duration of effect on mechanical allodynia", "setting": "[9]", "result": "> 6", "unit": "h"}, {"measurement": "mechanical allodynia, control paws", "setting": "[9]", "result": "no effect"}, {"measurement": "mechanical allodynia, paws ipsilateral to CCI surgery", "setting": "[9]", "result": "significantly attenuated"}]}
{"smiles": "O=C(O)c1cccc(-c2cnc(C(=O)C3CCc4cc(Oc5ccccc5)ccc4C3)o2)n1", "note": "(stereo not shown) [Compound 14, 6-(2-(6-Phenoxy-1,2,3,4-tetrahydronaphthalene-2-carbonyl)oxazol-5-yl)picolinic Acid]", "values": [{"measurement": "mode of inhibition (Lineweaver–Burk analysis)", "setting": "rat FAAH", "result": "reversible, competitive inhibitors"}, {"measurement": "activity against human versus rat FAAH", "setting": "human FAAH", "result": 4, "unit": "fold"}, {"measurement": "site of effect on lipid levels (brain vs liver)", "setting": "[7]; 1 h", "result": "principally seen peripherally (liver)"}, {"measurement": "brain lipid amide levels, oral versus intraperitoneal dosing", "setting": "[7]", "result": "matched and even improved on the results observed with i.p. administration"}, {"measurement": "duration of effect", "setting": "acute thermal pain", "result": 150, "unit": "min"}, {"measurement": "time of maximal effect", "setting": "acute thermal pain", "result": "30 to 60", "unit": "min"}, {"measurement": "maximal antinociceptive effect (efficacy)", "setting": "acute thermal pain; tail flick 52 °C", "result": "same maximal effect (efficacy) observed with morphine"}]}
{"smiles": "O=C(c1ncc(-c2ccccn2)o1)C1CCc2cc(OCc3ccccc3)ccc2C1", "note": "(stereo not shown) [Compound 18]", "values": [{"measurement": "half-life", "setting": "[5]", "result": "12 to 15", "unit": "min"}]}
{"smiles": "O=C(c1ncc(-c2ccccn2)o1)C1Cc2ccc(Oc3ccccc3)cc2C1", "note": "(stereo not shown) [Compound 27]", "values": [{"measurement": "effect on endogenous levels of 2-AG", "setting": "[7]; 1 h", "result": "without impacting"}, {"measurement": "effect on endogenous levels of arachidonic acid", "setting": "[7]; 1 h", "result": "minimal impact"}, {"measurement": "effect on endogenous levels of key lipid amides (anandamide, PEA)", "setting": "[7]; 1 h", "result": "increased"}]}
{"smiles": "CN1CC[C@]23c4c5ccc(O)c4O[C@H]2[C@@H](O)C=C[C@H]3[C@H]1C5", "note": "[morphine, reference compound]", "values": [{"measurement": "duration of effect", "setting": "acute thermal pain", "result": 150, "unit": "min"}]}
